We go through four compounds from patent US20020198219A1, “2-pyridinamine compositions and related methods” (priority 2000, published 2002).

Data set [1] concerns differentiated P19 neurons. Description: Differentiated P19 excitotoxicity assay (glutamate/glycine-induced death, Alamar Blue). The format is cell-based, murine. Particulars: 3 mM glutamate + 1 mM glycine; for pIC50: mean of three separate curves, read-out: IC50 for Neuroprotection [lower-upper 95% C.I.]; for Emax: read-out: Maximal Efficacy for Neuroprotection. On the procedure:
Alamar Blue fluorescence, an indicator of cell viability, was used to determine cell viability after an NMDA-induced cytotoxic insult. […] However, since raw fluorescence counts vary from experiment to experiment, FIGS. 2A, 2B, and 2C are expressed as a percent of control.
(§1) Glutamate toxicity dose response in the presence of a constant 1 mM glycine concentration was measured in the differentiated P19 neurons. The curve generated through the data points is the average of 6 separate dose response curves. Data points are represented as the percent of control cells ±standard error. % control=(([Glutamate]exp−[Glutamate]max)/(Controlvehicle−[Glutamate]max))×100.
Data points are the average ±standard error of three separate experiments.
These cells were used to measure the effects of various known kinase inhibitors (Compound Identification (ID) column in Table I) upon cytotoxicity-induced by NMDA. First, P19 cells were differentiated as described in Example 2. Then cells were exposed to 3 mM of glutamate in the presence of 1 mM glycine.
Cell viability was determined. Compounds that prevented excitotoxicity were determined by measuring the percentage of viable cells compared to differentiated P19 cells that were not presented with a toxic insult (Table I).
Cell viability was measured using two methods. The first method was a confocal, single-cell fluorescence imaging-based method using the live cell dye carboxy-fluorescein diacetate (CFDA). CFDA labels the cell bodies and processes of living cells. […] CFDA fluorescence was measured using a modified Attofluor Imager device (Atto Instruments, Rockville Pike, Md.). Cells were labeled with 1 uM CFDA for 15 min in media, then placed onto the stage of the Attofluor microscope. The dye was excited by light from a mercury lamp source passed through a 488 nm bandpass filter of 10 nm band width, passed through a CARV real-time confocal spinning disk module (Atto Instruments, Rockville, Md.), and then passed through a 40× oil immersion objective (Zeiss Fluar, NA=1.3). Emitted light was transmitted through a 495 nm dichroic mirror, collected to an Attofluor intensified CCD camera, and images were visualized using Attofluor RatioVision software (Atto Instruments, Rockville, Md.).
The second method for measuring cell viability was a plate reader method. Cells plated into black 96 well plates (Packard viewplates) are loaded with 5% Alamar Blue dye (Biosource International). Alamar Blue is a dye that takes advantage of mitochondrial reductases to convert non-fluorescent resazurin to fluorescent resorufin (excitation 535 nm, emission 580 nm). Baseline fluorescence counts were read at room temperature in a Wallac plate reader immediately after addition of Alamar blue. Fluorescence counts of cell viability were taken the same way after 1 hour incubation at 37° C. Fluorescence was expressed as a percent of control, untreated cells after subtraction of background fluorescence. Live/dead cells were confirmed visually with a light microscope. […]

For a further data set, the system named is PKC. The settings on record: from the literature; read-out: Potency, PKC; cited from earlier work.
The target of the next data set is PKA (Homo sapiens, UniProt P17612). The settings on record: from the literature; read-out: Potency, PKA; cited from earlier work.
In the next data set the target is T1, PKG (Homo sapiens, UniProt Q13976).
T1 sequence (Q13976 1-671): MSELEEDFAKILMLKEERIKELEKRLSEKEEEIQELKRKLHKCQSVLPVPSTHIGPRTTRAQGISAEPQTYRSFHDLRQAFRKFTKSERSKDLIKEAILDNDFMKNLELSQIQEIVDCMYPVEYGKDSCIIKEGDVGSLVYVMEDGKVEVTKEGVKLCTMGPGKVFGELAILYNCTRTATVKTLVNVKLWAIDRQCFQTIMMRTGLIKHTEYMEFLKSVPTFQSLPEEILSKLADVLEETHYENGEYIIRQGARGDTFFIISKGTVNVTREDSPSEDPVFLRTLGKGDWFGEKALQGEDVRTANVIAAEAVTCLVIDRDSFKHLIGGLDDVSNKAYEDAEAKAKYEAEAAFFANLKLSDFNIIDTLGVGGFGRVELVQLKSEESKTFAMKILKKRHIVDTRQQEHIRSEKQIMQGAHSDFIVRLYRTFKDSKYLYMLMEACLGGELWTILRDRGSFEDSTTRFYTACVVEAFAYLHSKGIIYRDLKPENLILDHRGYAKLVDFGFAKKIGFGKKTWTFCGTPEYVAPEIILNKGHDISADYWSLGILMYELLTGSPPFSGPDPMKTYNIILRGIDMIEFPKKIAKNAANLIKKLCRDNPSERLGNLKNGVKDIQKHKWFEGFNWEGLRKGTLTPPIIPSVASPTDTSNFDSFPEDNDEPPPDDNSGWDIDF
Particulars: from the literature; read-out: Potency, PKG; cited from earlier work.

The target of another data set is p60^c-src (Homo sapiens, UniProt P12931). The settings on record: from the literature; read-out: Potency, p60^c-src; cited from earlier work.
A further data set concerns the target EGF receptor (Homo sapiens, UniProt P00533). The settings on record: from the literature; read-out: Potency, EGF receptor; cited from earlier work.
The next data set has as its target T2, CDK1 (Homo sapiens, UniProt P06493).
T2 construct: host or cells: insect cells
As to the kind of experiment: Kinase assay (33P Flashplate), CDK1. Particulars: mean of at least two curves. Format: biochemical. On the procedure: (§2) The general procedure used to assay for kinase activity was as follows: a kinase reaction mix was prepared in 50 mM Tris-HCl pH=8, 10 mM MgCl2, 0.1 mM Na3VO4, 1 mM DTT, 10 μM ATP, 0.25-1 μM biotinylated peptide substrate, 0.2-0.8 [Curies per well ^33P-γ-ATP [2000-3000 Ci/mmol]. Assay conditions varied slightly for each protein kinase, for example, insulin receptor kinase requires 10 mM MnCl2 for activity and calmodulin-dependent protein kinase requires calmodulin and 10 mM CaCl2. Reaction mix was dispensed into the wells of a streptavidin-coated Flashplate and 1 μl drug stock in 100% DMSO was added to a 100 μL reaction volume resulting in a final concentration of 1% DMSO in the reaction. Enzyme was diluted in 50 mM Tris-HCl pH=8.0, 0.1% BSA and added to each well. […] Test compounds were assayed in duplicate at 8 concentrations ranging from 100 μM to 10 μM in one order of magnitude steps. […] The IC50 was calculated from the dose response curve of the percent inhibition of the maximum signal in the assay according to the formula [max signal−background/test compound signal−background×(100)]=% inhibition by graphing the percent inhibition against the log concentration of test compound.
(§3) Casein Kinase 1 is a truncation at amino acid 318 of the C-terminal portion of the rat CK1 delta isoform produced in E. coli.

For the next data set, the target named is T3, PK A (Bos taurus, UniProt P00517).
T3 construct: Protein Kinase A is the catalytic subunit of cAMP-dependent protein kinase-A purified from bovine heart; from tissue; host or cells: bovine heart
Description: Kinase assay (33P Flashplate), Protein Kinase A. Format: biochemical, bovine. On the procedure:
(§4) Assay conditions varied slightly for each protein kinase, for example, insulin receptor kinase requires 10 mM MnCl2 for activity and calmodulin-dependent protein kinase requires calmodulin and 10 mM CaCl2. Reaction mix was dispensed into the wells of a streptavidin-coated Flashplate and 1 μl drug stock in 100% DMSO was added to a 100 μL reaction volume resulting in a final concentration of 1% DMSO in the reaction. Enzyme was diluted in 50 mM Tris-HCl pH=8.0, 0.1% BSA and added to each well. The reaction was incubated for one hour at 30° C. in the presence of compound. After one hour the reaction mix was aspirated from the plate and the plate was washed with PBS containing 100 mM EDTA. The plate was read on a scintillation counter to determine ^33P-γ-ATP incorporated into the immobilized peptide. Test compounds were assayed in duplicate at 8 concentrations ranging from 100 μM to 10 μM in one order of magnitude steps. A maximum and minimum signal for the assay was determined on each plate. The IC50 was calculated from the dose response curve of the percent inhibition of the maximum signal in the assay according to the formula [max signal−background/test compound signal−background×(100)]=% inhibition by graphing the percent inhibition against the log concentration of test compound. Known inhibitor compounds appropriate for the kinase being assayed were also included on each plate. […]

The next data set has as its target T4, PKC-γ (Homo sapiens, UniProt P05129).
T4 construct: host or cells: insect cells
Description: Kinase assay (33P Flashplate), PKC-γ. The format is biochemical. Particulars: mean of at least two curves. On the procedure: as §2, §3

The next data set concerns the target T5, Casein Kinase 1 (Rattus norvegicus, UniProt Q06486).
T5 construct: a truncation at amino acid 318 of the C-terminal portion of the rat CK1 delta isoform; host or cells: E. coli
T5 sequence (Q06486 1-317): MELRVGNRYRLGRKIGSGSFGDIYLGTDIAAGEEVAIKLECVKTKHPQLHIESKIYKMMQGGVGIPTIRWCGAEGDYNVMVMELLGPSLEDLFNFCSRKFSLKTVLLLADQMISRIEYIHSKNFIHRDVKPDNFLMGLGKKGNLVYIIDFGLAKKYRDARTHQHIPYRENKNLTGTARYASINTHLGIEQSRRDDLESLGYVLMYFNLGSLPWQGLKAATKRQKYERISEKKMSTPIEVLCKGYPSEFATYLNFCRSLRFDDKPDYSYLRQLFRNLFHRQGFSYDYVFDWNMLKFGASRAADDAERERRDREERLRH
Description: Kinase assay (33P Flashplate), Casein Kinase 1. Particulars: mean of at least two curves. The format is biochemical. On the procedure:
as §2, §3

The target in a further data set is T6, Casein Kinase 2 (Homo sapiens, UniProt P68400).
T6 construct: host or cells: E. coli
As to the kind of experiment: Kinase assay (33P Flashplate), Casein Kinase 2. Format: biochemical. The settings on record: mean of at least two curves. On the procedure: as §2, §3

The target of a further data set is T7, Calmodulin Kinase (Rattus norvegicus, UniProt P11275).
T7 construct: host or cells: insect cells
Description: Kinase assay (33P Flashplate), Calmodulin Kinase. Format: biochemical. The settings on record: mean of at least two curves. On the procedure:
as §2, §3

Another data set addresses T8, Insulin Receptor Kinase (Homo sapiens, UniProt P06213).
T8 construct: Insulin Receptor Kinase consists of residues 941-1313 of the cytoplasmic domain of the beta-subunit of the human insulin receptor
As to the kind of experiment: Kinase assay (33P Flashplate), Insulin Receptor Kinase. The settings on record: mean of at least two curves. Format: biochemical. On the procedure:
as §2, §3

For the next data set, the system named is P19 neurons. On the procedure: as §1
For the next data set, the target named is EGF-R (Homo sapiens, UniProt P00533). Description: biochemical. On the procedure: as §4

pIC50: −log10 of the molar value. Like-named read-outs stand apart in the source and are kept apart here.

T7 sequence (P11275 1-325): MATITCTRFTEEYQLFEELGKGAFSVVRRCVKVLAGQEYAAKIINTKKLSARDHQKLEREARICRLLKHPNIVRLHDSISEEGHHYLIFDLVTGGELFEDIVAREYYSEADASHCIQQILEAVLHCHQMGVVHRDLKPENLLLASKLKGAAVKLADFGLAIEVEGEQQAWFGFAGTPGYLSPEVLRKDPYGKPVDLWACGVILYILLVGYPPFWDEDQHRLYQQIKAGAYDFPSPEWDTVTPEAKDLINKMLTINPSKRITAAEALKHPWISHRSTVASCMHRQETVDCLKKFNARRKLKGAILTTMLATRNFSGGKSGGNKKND
T6 sequence (P68400 whole entry): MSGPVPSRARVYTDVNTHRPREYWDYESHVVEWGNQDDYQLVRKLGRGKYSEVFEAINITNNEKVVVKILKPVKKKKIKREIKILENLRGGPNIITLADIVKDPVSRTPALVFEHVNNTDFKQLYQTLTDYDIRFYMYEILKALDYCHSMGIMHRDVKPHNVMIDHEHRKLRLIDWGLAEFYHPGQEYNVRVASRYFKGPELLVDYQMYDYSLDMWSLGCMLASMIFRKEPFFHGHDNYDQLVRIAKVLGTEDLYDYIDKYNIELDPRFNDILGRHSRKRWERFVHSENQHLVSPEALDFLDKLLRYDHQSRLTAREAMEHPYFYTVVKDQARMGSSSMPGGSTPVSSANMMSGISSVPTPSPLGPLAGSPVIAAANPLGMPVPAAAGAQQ
T6 sequence (P67870 whole entry partner): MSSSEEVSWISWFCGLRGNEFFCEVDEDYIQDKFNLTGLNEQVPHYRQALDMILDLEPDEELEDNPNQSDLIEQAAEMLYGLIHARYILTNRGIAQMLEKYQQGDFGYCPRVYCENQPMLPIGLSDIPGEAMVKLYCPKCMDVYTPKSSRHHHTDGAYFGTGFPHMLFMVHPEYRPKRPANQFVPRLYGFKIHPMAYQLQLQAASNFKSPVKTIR
T2 sequence (P06493 whole entry): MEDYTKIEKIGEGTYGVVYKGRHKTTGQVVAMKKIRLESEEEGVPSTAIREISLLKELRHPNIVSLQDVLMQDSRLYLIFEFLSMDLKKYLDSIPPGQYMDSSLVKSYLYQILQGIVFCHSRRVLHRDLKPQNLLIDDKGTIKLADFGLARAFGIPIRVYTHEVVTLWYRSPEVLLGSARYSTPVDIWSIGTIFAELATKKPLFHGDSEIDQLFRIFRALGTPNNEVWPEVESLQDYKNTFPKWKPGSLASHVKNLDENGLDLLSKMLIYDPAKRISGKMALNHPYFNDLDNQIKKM
T2 sequence (P14635 whole entry partner): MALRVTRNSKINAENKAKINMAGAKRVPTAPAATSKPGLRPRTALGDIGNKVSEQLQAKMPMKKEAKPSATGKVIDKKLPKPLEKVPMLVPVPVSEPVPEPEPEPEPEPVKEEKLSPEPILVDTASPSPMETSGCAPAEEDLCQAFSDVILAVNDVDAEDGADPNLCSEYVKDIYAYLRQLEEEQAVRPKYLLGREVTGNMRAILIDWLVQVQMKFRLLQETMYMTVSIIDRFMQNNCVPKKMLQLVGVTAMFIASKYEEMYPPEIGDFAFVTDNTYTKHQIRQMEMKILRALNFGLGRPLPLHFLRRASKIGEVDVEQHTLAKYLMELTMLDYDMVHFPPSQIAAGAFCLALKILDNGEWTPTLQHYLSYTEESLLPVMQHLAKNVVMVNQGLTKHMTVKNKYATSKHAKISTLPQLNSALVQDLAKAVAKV
Chain of EGF-R (P00533 25-1210): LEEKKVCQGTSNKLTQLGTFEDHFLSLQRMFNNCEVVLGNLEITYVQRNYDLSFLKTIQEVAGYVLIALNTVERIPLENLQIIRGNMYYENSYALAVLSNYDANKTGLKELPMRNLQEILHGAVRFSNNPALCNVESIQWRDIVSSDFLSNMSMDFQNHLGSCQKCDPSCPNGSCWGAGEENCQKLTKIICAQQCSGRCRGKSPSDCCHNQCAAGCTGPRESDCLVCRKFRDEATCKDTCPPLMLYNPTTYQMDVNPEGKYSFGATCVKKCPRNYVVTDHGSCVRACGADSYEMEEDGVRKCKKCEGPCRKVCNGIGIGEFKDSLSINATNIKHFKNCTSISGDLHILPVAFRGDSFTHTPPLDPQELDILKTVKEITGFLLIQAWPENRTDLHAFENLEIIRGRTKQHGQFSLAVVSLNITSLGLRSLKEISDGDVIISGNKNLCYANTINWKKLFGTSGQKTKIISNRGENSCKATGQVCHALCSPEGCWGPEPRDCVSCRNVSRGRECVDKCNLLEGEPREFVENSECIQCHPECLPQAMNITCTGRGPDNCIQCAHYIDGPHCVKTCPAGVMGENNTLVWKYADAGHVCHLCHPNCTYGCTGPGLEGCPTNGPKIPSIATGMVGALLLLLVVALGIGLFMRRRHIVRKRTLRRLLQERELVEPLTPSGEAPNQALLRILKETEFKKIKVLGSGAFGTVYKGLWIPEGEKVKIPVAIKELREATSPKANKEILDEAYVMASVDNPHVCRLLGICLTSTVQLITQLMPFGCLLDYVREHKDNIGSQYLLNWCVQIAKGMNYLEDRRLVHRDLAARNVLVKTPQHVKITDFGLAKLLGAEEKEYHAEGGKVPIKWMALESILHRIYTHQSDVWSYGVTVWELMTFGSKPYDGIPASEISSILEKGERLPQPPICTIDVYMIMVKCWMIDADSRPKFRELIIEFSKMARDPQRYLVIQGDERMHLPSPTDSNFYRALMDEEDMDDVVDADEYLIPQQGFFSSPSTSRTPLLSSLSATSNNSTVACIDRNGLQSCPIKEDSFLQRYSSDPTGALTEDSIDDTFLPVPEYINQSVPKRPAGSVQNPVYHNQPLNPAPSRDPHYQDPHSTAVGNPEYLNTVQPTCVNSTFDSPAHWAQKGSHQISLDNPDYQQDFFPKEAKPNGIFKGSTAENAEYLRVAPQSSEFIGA
Chain of EGF receptor (P00533 25-1210): as above

Calphostin C: the “Maximal Efficacy for Neuroprotection” value in data set [1] is “˜50%”. Also, the pIC50 in data set [1] is under 6.00; in the data set with PKC it was about 7.30; at PKA, under 4.30; at PKG, under 4.60; at p60^c-src it was under 4.30.

Regarding `O=C(O)c1cc(N(Cc2ccccc2O)Cc2cc(O)ccc2O)ccc1O` [Lavendustin A], in data set [1], the “Maximal Efficacy for Neuroprotection” value is under 25%. The pIC50 was under 5.00 in [1], about 6.30 on p60^c-src and about 7.96 on EGF receptor.

Regarding `COc1cc(N)nc2[nH]c(-c3ccc(F)cc3)c(-c3ccncc3)c12` [Compound A], the pIC50 is 5.01 in [1] (Mus musculus, Neuron); under 4.00 against CDK1; under 4.00 at PK A (mean of at least two curves, read-out: PK A); 5.08 against PKC-γ; 6.94 against Casein Kinase 1; under 4.00 against Casein Kinase 2. Besides, the pIC50 against Calmodulin Kinase and on Insulin Receptor Kinase was under 4.00 each time. Moreover, in data set [1] (Mus musculus, Neuron), the Emax was over 80%.

Turning to `N#CC(=C(/N)Sc1ccccc1N)/C(C#N)=C(/N)Sc1ccccc1N` [U0126, bis[amino[(2-aminophenyl)thio]methylene] Butanedinitrile], the pIC50 was 5.96 in data set [1] (Mus musculus, Neuron); under 4.00 against CDK1; under 4.00 at EGF-R; under 4.00 at PK A; 4.53 against PKC-γ; under 4.00 on Casein Kinase 1. The pIC50 at Casein Kinase 2 and on Calmodulin Kinase was under 4.00 throughout. The Emax in data set [1] (Mus musculus, Neuron) was over 80%. Besides, the “effect on basal P19 neuron viability” value with P19 neurons was “did not affect the basal viability”.
